Experimental data published in patent publication US20250041438A1, “ANTIBODY-DRUG CONJUGATE” (NOVELTY NOBILITY INC., priority 2022, published 2025).

Columns and labels:
GIST-T1 cells = type: in vivo; details: imatinib 100 mg/kg p.o. D0-D29
GIST-430/654 cells = experiment: In vivo efficacy against imatinib-resistant GIST, GIST-430/654 cell xenograft model; parameters: species or system mice; details: day 49; imatinib 100 mg/kg p.o.
SCLC-H526 cells = experiment: In vivo efficacy against SCLC, SCLC-H526 xenograft model; parameters: species or system mice; details: day 21; imatinib 100 mg/kg p.o.
Experimental: In order to evaluate the efficacy of ADC substances against SCLC, an experiment was performed. The SCLC-H526 (NCI-H526, stage E, carcinoma; variant small cell lung cancer, c-Kit overexpression) xenograft model was used.

HMC 1.2 cells = experiment: In vivo efficacy against mast cell tumor, HMC 1.2 xenograft model; parameters: species or system mice; details: day 17; imatinib 100 mg/kg p.o.
Kasumi-1 cells = experiment: In vivo efficacy against AML, Kasumi-1 xenograft model; parameters: species or system mice; details: day 17; imatinib 100 mg/kg p.o.
Experimental: The experiment was performed in the same manner as in Example 5, except that Kasumi-1 cells (3×10^6/100 […]/head/serum free, RPMI1640 medium) in 50% Matrigel (Corning, 354248, NY, USA) were used. The mice were enrolled in this study on day 29 after transplantation, and the average tumor volume was about 170 mm^3 (day 0).

## Cc1ccc(NC(=O)c2ccc(CN3CCN(C)CC3)cc2)cc1Nc1nccc(-c2cccnc2)n1 [imatinib, reference compound]
GIST-T1 cells
  tumor weight after sacrifice, decrease compared to the control (vehicle): about 59%
GIST-430/654 cells
  tumor growth inhibition compared to the control (vehicle), in words: little inhibition of tumor growth
SCLC-H526 cells
  tumor growth inhibition compared to the control (vehicle), in words: little inhibition of tumor growth
HMC 1.2 cells
  tumor growth inhibition, in words: little inhibition of tumor growth
Kasumi-1 cells
  tumor growth inhibition compared to the control (vehicle), in words: little inhibition of tumor growth
